# Experimental data published in patent US20250026748A1, “N-(5-SUBSTITUTED-[(1,3,4-THIADIAZOLYL) OR (THIAZOLYL)])(SUBSTITUTED)CARBOXAMIDE COMPOUNDS AND USE THEREOF FOR INHIBITING HUMAN POLYMERASE THETA” (Repare Therapeutics Inc., priority 2021, published 2025).
# Molecular target: PolQ ATPase enzyme (1-894) (Homo sapiens (Human), UniProt O75417)
# Assay: Polθ ATPase enzymatic assay (0.5 nM enzyme concentration), ADP-Glo
# Type: biochemical
# Details: average IC50; 0.5 nM PolQ ATPase enzyme (1-894)
# Method in brief: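 Enzyme (0.5 nM) pre-incubated 15 min at rt with 10-point inhibitor series in 50 mM Tris pH 7.5, 10% glycerol, 5 mM DTT, 10 mM MgCl2, 0.1 mg/ml BSA; reaction started with 20 nM fork DNA and 100 μM ATP, run 180 min at rt. ADP-Glo luminescence; IC50 from 4-parameter variable-slope fit.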
# Sequence of PolQ ATPase enzyme (1-894) (O75417 1-894): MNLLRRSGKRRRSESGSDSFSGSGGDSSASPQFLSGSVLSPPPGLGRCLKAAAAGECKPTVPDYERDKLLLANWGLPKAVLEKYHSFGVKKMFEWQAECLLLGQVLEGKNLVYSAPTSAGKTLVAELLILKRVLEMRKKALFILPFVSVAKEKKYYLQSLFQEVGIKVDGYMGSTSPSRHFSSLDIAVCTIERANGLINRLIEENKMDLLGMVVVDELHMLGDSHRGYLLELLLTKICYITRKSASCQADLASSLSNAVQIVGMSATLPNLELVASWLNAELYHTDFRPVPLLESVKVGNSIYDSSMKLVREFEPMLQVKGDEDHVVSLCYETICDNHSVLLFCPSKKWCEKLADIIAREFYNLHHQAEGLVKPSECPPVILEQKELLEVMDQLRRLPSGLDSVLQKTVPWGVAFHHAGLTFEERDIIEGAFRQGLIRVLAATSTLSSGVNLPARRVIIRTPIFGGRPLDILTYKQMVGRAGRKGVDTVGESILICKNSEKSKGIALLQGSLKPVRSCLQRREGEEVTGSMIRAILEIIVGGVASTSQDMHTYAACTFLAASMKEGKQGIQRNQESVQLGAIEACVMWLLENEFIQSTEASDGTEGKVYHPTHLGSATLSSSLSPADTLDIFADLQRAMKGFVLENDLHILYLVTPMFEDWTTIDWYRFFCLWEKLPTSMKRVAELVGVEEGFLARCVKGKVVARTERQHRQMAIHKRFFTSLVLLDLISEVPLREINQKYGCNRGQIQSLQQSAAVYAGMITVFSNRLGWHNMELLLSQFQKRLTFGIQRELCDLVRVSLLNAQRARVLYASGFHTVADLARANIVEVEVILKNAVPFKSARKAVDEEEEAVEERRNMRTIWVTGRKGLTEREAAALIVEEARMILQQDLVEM
row,IC50 [nM],SMILES
1,13,COc1cnc(Cl)cc1-c1cn2c(C(N)=O)cnc2cc1C(=O)Nc1nnc(C#CC2CC2)s1 [Compound 342]
2,20,COc1ccc(C(F)(F)F)cc1-c1cc(N2CCN(C)C2=O)ncc1C(=O)Nc1nnc(C#CC2CC2)s1 [Compound 281]
3,1.8,COc1cnc(Cl)cc1-c1cnccc1C(=O)Nc1nnc(C2C[C@H]2c2ccc(C#N)cc2O)s1 (some centres unmarked) [Compound 273]
4,< 0.25,COc1cnc(C(F)F)cc1-c1cc(-n2cccc(C)c2=O)ncc1C(=O)Nc1nnc(C#CC2CC2)s1 [Compound 437]
5,1.6,COc1ccc(C(F)(F)F)cc1-c1cc(-c2cnn(C)c2)ncc1C(=O)Nc1nnc(C#CC2CC2)s1 [Compound 296]
6,0.41,COc1ccc(C(F)F)cc1-c1cc(C#N)ncc1C(=O)Nc1nnc(C#CC2CC2)s1 [Compound 321]
7,21,COc1cnc(C(F)F)cc1-c1cc(N(C)C)ncc1C(=O)Nc1nnc(C#CC2CC2)s1 [Compound 286]
8,8.1,COc1cnc(C(F)F)cc1-c1cc(-c2cc(C#N)n(C)n2)ncc1C(=O)Nc1nnc(C#CC2CC2)s1 [Compound 371]
9,24,Cc1nc(Cn2cc(-c3cc(C(F)(F)F)ccc3Cl)c(C(=O)Nc3nnc(C#CC4CC4)s3)cc2=O)cs1 [Compound 331]
10,3.7,COc1ccc(C(F)(F)F)cc1-c1cn2ncnc2cc1C(=O)Nc1nnc(C#CC2CC2)s1 [Compound 345]
11,< 0.25,COc1cnc(C(F)F)cc1-c1cc(N2CC(C)CCC2=O)ncc1C(=O)Nc1nnc(C#CC2CC2)s1 (centres unmarked) [Compound 389]
12,3.4,COc1ccc(Cl)nc1-c1cnccc1C(=O)Nc1nnc(C#CC2CC2)s1 [Compound 339]

# Further lines, the compound ahead of its results:
row,SMILES,IC50 [nM]
1,O=C(Nc1nnc(C#CC2CC2)s1)c1cc(=O)n(Cc2nccs2)cc1-c1cc(C(F)(F)F)ccc1Cl [Compound 65],2.2
2,COc1cnc(C(F)F)cc1-c1cc(C#CCN2CCOCC2)ncc1C(=O)Nc1nnc(C#CC2CC2)s1 [Compound 218],0.25
3,COc1cnc(Cl)cc1-c1cc(-c2cc[nH]n2)ccc1C(=O)Nc1nnc(C#CC2CC2)s1 [Compound 46],0.2
4,COc1cnc(Cl)cc1-c1cn2ncnc2cc1C(=O)Nc1nnc(C#CC2CC23CC3)s1 (centres unmarked) [Compound 64],1.9
5,COc1ccc(C(F)F)cc1-c1cn(C)c(=O)cc1C(=O)Nc1nnc(C#CC2CC23CC3)s1 (centres unmarked) [Compound 42],1.8
6,CNC(=O)Cn1cc(-c2cc(Cl)ncc2OC)c(C(=O)Nc2nnc(C#CC3CC3)s2)cc1=O [Compound 104],0.31
7,COc1cnc(C(F)F)cc1-c1cc(CC#N)ccc1C(=O)Nc1ncc(C#CC2CC2)s1 [Compound 193],2.5
8,O=C(Nc1nnc(C#CC2CC2)s1)c1ccncc1-c1cc(Cl)ncc1Cl [Compound 44],0.31
9,COc1cnc(C(F)F)cc1-c1cc(C#CCN2CCOC[C@H]2C)ncc1C(=O)Nc1nnc(C#CC2CC2)s1 [Compound 189],< 0.25
10,COc1cnc(C(F)F)cc1-c1cc(C#CC2CCOC2)ncc1C(=O)Nc1ncc(C#CC2CC2)s1 (centres unmarked) [Compound 223],0.29
11,COc1cnc(C(F)F)cc1-c1cc(OC[C@H]2CCOC2)ncc1C(=O)Nc1nnc(C#CC2CC2)s1 [Compound 149],0.37
12,COc1cnc(C(F)F)cc1-c1cc(Oc2cnn(C)c2)ncc1C(=O)Nc1nnc(C#CC2CC2)s1 [Compound 271],0.64
13,COc1cnc(C(F)F)cc1-c1cc(OC[C@H]2CCCO2)ncc1C(=O)Nc1nnc(C#CC2CC2)s1 [Compound 186],0.79
14,COc1ccc(C(F)(F)F)cc1-c1cn(C)c(=O)cc1C(=O)Nc1nnc(C#CC2CC23CC3)s1 (centres unmarked) [Compound 60],1.1
15,COc1cnc(C(F)F)cc1-c1cc(C(=O)N(C)C)ccc1C(=O)Nc1nnc(C#CC2CC2)s1 [Compound 258],2.9
16,COc1cnc(C(F)F)cc1-c1cc(N2CCCCC2=O)ccc1C(=O)Nc1nnc(C#CC2CC2)s1 [Compound 212],< 0.25
17,COc1cnc(C(F)F)cc1-c1cc(-c2ccnn2C)ncc1C(=O)Nc1nnc(C#CC2CC2)s1 [Compound 127],< 0.25
